The source of these data is PMC9456261 (International Journal of Molecular Sciences, 2022).

One series relates to Vero E6 cells. Put plainly: Cytotoxicity, MTT assay. Background: Formazan colour is commonly taken as a measure of viable cells.
A further series can be described thus: in vitro. The note with it: African green monkey.
Another series deals with SARS-CoV-2. Put plainly: Time-of-drug-addition assay (qRT-PCR of viral RNA in supernatant). Format: cell-based. Particulars: 25 µM, Vero E6, MOI 0.01, qRT-PCR 18 h post-infection. Here is the method: To explore which steps of the SARS-CoV-2 replication cycle were interrupted by the test compounds, we performed a time-of-drug-addition assay for compounds 874 and 876, which were selected as representatives with different substituents at positions N1 and N3. Cells were treated with 25 µm of these compounds at various stages of infection (entry, full time and post-entry) which was followed by qRT-PCR assays.
The assays were performed as described previously. Briefly, Vero E6 cells were seeded into 96-well plates and treated with 874 or 876 (25 µM) at different stages of virus infection (full-time, entry and post-entry). The cells were infected with SARS-CoV-2 (MOI = 0.01) and then incubated for 1 h. The viral inoculum was then removed, and the cells were washed twice with PBS. At 18 h post-infection, the cell culture supernatant of each time point experiment was collected for viral yield measurements using qRT–PCR, as described in [31, 33].
Figure 3 Time-of-drug-addition Assay. Vero E6 cells were treated with the compounds at different time points of the viral replication cycle as described in the Materials and Methods chapter. For all experimental groups, cells were infected with SARS-CoV-2 at an MOI of 0.01. Viral RNA copies in the supernatant were quantified by qRT-PCR at 18 h post-infection. All results are shown as mean ± SEM (n = 3). One-way ANOVA with Tukey’s post hoc test: ** p < 0.01, *** p < 0.001 and **** p < 0.0001.
For orientation: In qPCR the cycle at which signal appears reflects the starting amount.

Series [1] deals with SARS-CoV-2 RdRp (NSP12, NSP7 and NSP8) (Severe acute respiratory syndrome coronavirus 2, UniProt P0DTD1). Put plainly: Inhibition of SARS-CoV-2 RNA-dependent RNA polymerase activity (Profoldin kit). The format is biochemical. The method, then:
SARS-CoV-2 RdRp activity was inhibited by 876 at 100 µM and 50 µM, by 100% and 60%, respectively (Figure 6).
The activity of SARS-CoV-2 RdRp was assessed using the SARS-CoV-2 RNA-dependent RNA polymerase kit plus (Profoldin #S2RPA100KE), according to the manufacture instructions. In brief, reactions were carried out at 35 °C for 2 h in the presence or absence (control) of the test compound. Then, fluorescent dye was added, and fluorescence was determined using a Qubit fluorimeter (Thermo Fisher, MA, USA). The inhibition of RdRp activity was calculated from the values obtained for control samples.
Figure 6 Uracil Derivative 876 Inhibit the Transcriptional Activity of SARS-CoV-2 RNA-dependent RNA polymerase. Transcriptional inhibition plot of the SARS-CoV-2 replication complex treated with 876 or PBS (control) (n = 3). Results are representative mean ± SEM. One-way ANOVA with Tukey’s post hoc test: *** p < 0.001 and **** p < 0.0001.

In the series on Vero E6 cells (72 h), “4-[5-[3-[5-(2-Bromophenoxy)pentyl]-2,6-dioxo-5-methyl-3,6-dihydropyrimidin-1(^2H)-yl]pentyloxy]benzoic acid [Compound 872]” gave a CC50 greater than 50 µM.
As usually defined, the melting point is the temperature, or range, at which the solid turns liquid. With `O=C(O)c1ccc(OCCCCn2c(=O)ccn(Cc3cccc4ccccc34)c2=O)cc1` [Compound 601, 4-[4-[2,6-Dioxo-3-(naphthyl-1-methyl)-3,6-dihydropyrimidin-1(^2H)-yl]butoxy]benzoic acid], the melting point was 183 to 184.5 °C. Moreover, in “in vitro”, the CC50 was greater than 50 µM.
The compound `O=c1ccn(Cc2c3ccccc3cc3ccccc23)c(=O)n1CCCCCCOc1ccc(Br)cc1` [Compound 611, 1-(Anthracen-9-ylmethyl)-3-[6-(4-bromophenoxy)hexyl]uracil] came in with a CC50 in “in vitro” greater than 50 µM.
In turn, `O=C(O)c1ccc(OCCCCCn2c(=O)ccn(CCCCCOc3ccc(F)cc3)c2=O)cc1` [Compound 870, 4-[5-[3-[5-(4-Fluorophenoxy)pentyl]-2,6-dioxo-3,6-dihydropyrimidin-1(^2H)-yl]pentyloxy]benzoic acid] had a melting point of 133 to 135 °C. The CC50 in the series “in vitro” is greater than 50 µM.
Regarding `O=C(O)c1ccc(OCCCCCn2c(=O)ccn(CCCCCOc3ccccc3Br)c2=O)cc1` [Compound 871, 4-[5-[3-[5-(2-Bromophenoxy)pentyl]-2,6-dioxo-3,6-dihydropyrimidin-1(^2H)-yl]pentyloxy]benzoic acid], in the series on Vero E6 cells, the “Effect on cell proliferation / cell death” value is recorded as “reduced cell proliferation without significant cell death”. Moreover, in “in vitro”, the CC50 is greater than 25 µM.
As to `O=C(O)c1ccc(OCCCCn2c(=O)ccn(CCCOc3ccc(Br)cc3)c2=O)cc1` [Compound 873, 4-[4-[3-[3-(4-Bromophenoxy)propyl]-2,6-dioxo-3,6-dihydropyrimidin-1(^2H)-yl]butoxy]benzoic acid], the melting point was in the range of 122 to 124 °C. The same compound returned a CC50 in the series “in vitro” greater than 50 µM.
With `Cc1cc(C)cc(OCCCCCn2ccc(=O)n(CCCCCOc3ccc(C(=O)O)cc3)c2=O)c1` [Compound 874, 4-[5-[3-[5-(3,5-Dimethylphenoxy)pentyl]-2,6-dioxo-3,6-dihydropyrimidin-1(^2H)-yl]pentyloxy]benzoic acid], in the series with Vero E6 cells, the “Effect on cell proliferation / cell death” value was “reduced cell proliferation without significant cell death”. In the series with SARS-CoV-2, the “Production of viral RNA, compound added at entry step” value is on record as “did not inhibit the production of viral RNA” and the “Virus replication (viral load in supernatant), compound added full time” value is reported as “inhibited virus replication”. The compound further came in with a CC50 in “in vitro” greater than 25 µM.
As to `O=C(O)c1ccc(Cn2c(=O)ccn(CCCCCOc3ccc(Br)cc3)c2=O)cc1` [Compound 875], the CC50 in the series “in vitro” was greater than 50 µM.
As a reminder, the inhibition is the drop in the measured response relative to a control, in per cent. Compound `O=C(O)c1ccc(OCCCCCn2c(=O)ccn(Cc3c4ccccc4cc4ccccc34)c2=O)cc1` [Compound 876] had a melting point of 173 to 176 °C. This compound displayed an inhibition at 50 µM in series [1] (50 µM) of 60%. The compound also yielded an inhibition at 100 µM in series [1] (100 µM) of 100%. Further, in the series with SARS-CoV-2, the “Production of viral RNA, compound added at entry step” value is “did not inhibit the production of viral RNA” and the “Virus replication (viral load in supernatant), compound added full time” value was “inhibited virus replication”. The “Viral load, compound added post-entry” value in the series on SARS-CoV-2 (post-entry) is recorded as “reduced the viral load”. This compound also displayed a CC50 in the series “in vitro” greater than 50 µM.
`O=C(O)c1ccc(OCCCCn2c(=O)ccn(Cc3ccc4ccccc4c3)c2=O)cc1` [Compound 1005, 4-[4-[2,6-Dioxo-3-(naphthyl-2-methyl)-3,6-dihydropyrimidin-1(^2H)-yl]butoxy]benzoic acid] registered a melting point of 143.5 to 145 °C. The CC50 in “in vitro” was greater than 50 µM.
In turn, `O=C(O)c1ccc(OCCCCn2c(=O)ccn(Cc3ccc(Br)c4ccccc34)c2=O)cc1` [Compound 1006, 4-[4-[3-(4-Bromonaphthyl-1-methyl)-2,6-dioxo-3,6-dihydropyrimidin-1(2H)-yl]butoxy]benzoic acid] registered a melting point of 195.5 to 197.5 °C. The compound further gave a CC50 in “in vitro” greater than 50 µM.
As to `O=C(O)c1ccc(OCCCn2c(=O)ccn(CCCCCCCCCCCCOc3ccc(Br)cc3)c2=O)cc1` [Compound 1007, 4-[3-[3-[12-(4-Bromophenoxy)dodecyl]-2,6-dioxo-3,6-dihydropyrimidin-1(^2H)-yl]propoxy]benzoic acid], the “Effect on cell proliferation / cell death” value with Vero E6 cells was “reduced cell proliferation without significant cell death”. Moreover, the CC50 in “in vitro” was greater than 25 µM.
